Data on one compound can be found in US20170029451A1, “BRANCHED CHAIN ACYCLIC NUCLEOSIDE PHOSPHONATE ESTERS AND METHODS OF SYNTHESIS AND USES THEREOF” (CHIMERIX, INC., priority 2013, published 2017).

SMILES strings stand for the structures. Like-named read-outs stand apart in the source and are kept apart here.

In data set [1] the test system is HCMV UL54 resistant mutant 4955^R. The experiment in a line: microbe, parasite or virus in culture. The format is cell-based, Human Cytomegalovirus (HCMV). The settings on record: Human betaherpesvirus 5, Fibroblast.
Data set [2] relates to Influenza virus A/CA/10/2009. The experiment in a line: microbe, parasite or virus in culture. The format is cell-based. The following applies: unidentified influenza virus, MDCK, read-out: A/CA/10/2009 (EC50, μM).
In data set [3] the test system is Human Cytomegalovirus (HCMV). The experiment in a line: HCMV EC50 in MRC-5 cells (qPCR of intracellular CMV DNA). The format is cell-based. As to the method:
Costar 96-well tissue culture plates were seeded with 20,000 MRC-5 cells/well in EMEM containing 2% Hyclone Standard Fetal Bovine Serum and 1% Hyclone Penicillin and Streptomycin. Outer wells were not used to minimize the edge-effect produced by extended incubations. Cells were inoculated with HCMV at an MOI of 0.01. Serial dilutions of test compounds were added to the cells and plates were incubated for 7 days at 37° C. in 5% CO2. […] Culture medium was gently removed from infected cells after the 7-day incubation. The cells were rinsed twice with ice-cold PBS, and then freeze/thawed once. Each well was incubated with 200 μL lysis buffer for 2 hours at 55° C. Lysis buffer included 0.5 mg/mL protease K, 50 mM KCl, 10 mM Tris-Cl pH 8.0, 2.5 mM MgCl2, 0.45% IGEPAL, and 0.45% Tween-20 dissolved in DEPC-treated water. Intracellular CMV DNA was measured by quantitative polymerase chain reaction (qPCR) using forward and reverse HCMV PCR primers, and a FAM-labeled probe. Absolute quantitation of viral copy number was performed using a standard curve with dilutions of a HCMV DNA amplicon containing sequences homologous to the amplified fragment. The following qPCR amplification conditions were used: 1 cycle at 95° C. for 10 minutes, followed by 45 cycles of 95° C. for 15 seconds and 60° C. for 60 seconds. The qPCR reactions were performed using an Applied Biosystems 7500 real Time PCR System. Gen 5 software (BioTek Instruments, Inc.) was used to calculate the concentration which inhibited the viral DNA levels of HCMV-infected MRC-5 cells by 50% (EC50).
A general note: In qPCR the cycle at which signal appears reflects the starting amount.

The nature of data set [4]: Cytotoxicity (CC50) in MRC-5 cells. The format is cell-based. The settings on record: human, cell line MRC5 (HCMV row). On the procedure: Costar 96-well tissue culture plates were seeded with 20,000 MRC-5 cells (ATCC)/well in EMEM (ATCC, Cat 30-2003) containing 2% Hyclone Standard Fetal Bovine Serum (FBS, Cat 5H30088.03) and 1% Hyclone Penicillin and Streptomycin (Cat SV30010). Outer wells were not used to minimize the edge-effect produced by extended incubations. Serial dilutions of test compounds were added to the cells and plates were incubated for 7 days at 37° C. in 5% CO2. After 7 days of incubation 40 μL of Cell Titer 96® Aqueous MTS Reagent (Promega, G111) was added as directed by manufacturer to the 200 iut media in each well and incubated at 37° C. until the untreated-cell controls developed an 490 nm absorbance between 1.1 and 1.8. The final absorbance readings were read using a BioTek Synergy 2, and Gen 5 software (BioTek Instruments, Inc.) was used to calculate the concentration which inhibited MRC-5 cells by 50% (CC50).

Another data set deals with HHV-6B. The experiment in a line: DNA hybridization assay for HHV-6B in MOLT-3 cells. The format is cell-based, human herpes virus 6 (HHV-6). The following applies: Homo sapiens; Virus HHV-6B, cell line MOLT-3. As to the method: Assays for EBV were performed in Akata cells that were induced to undergo a lytic infection with 50 μg/ml of a goat anti-human IgG antibody by standard methods. Experimental compounds were diluted in round bottom 96-well plates to yield concentrations ranging from 20 to 0.016 μM. Akata cells were added to the plates at a concentration of 4×10^4 cells per well and incubated for 72 h. For HHV-6 assays, compounds were serially diluted in 96-well plates then 1×10^4 uninfected HSB-2 or Molt-3 cells were added to each well. Infection was initiated by adding HHV-6A infected HSB-2 cells, or HHV-6B infected Molt-3 cells, at a ratio of approximately 1 infected cell for every 10 uninfected HSB-2 cells or Molt-3 cells respectively and incubated for 7 d at 37° C.
For all assays, 100 µl of denaturation buffer (1.2M NaOH, 4.5M […] NaCl) was added to each well to denature the DNA and a […] aliquot was aspirated through an Immobilon nylon membrane (Millipore, Bedford, Mass.) using a Biodot apparatus (Bio-Rad, Hercules, Calif.). The membranes were then allowed to dry before equilibration in DIG Easy Hyb (Roche Diagnostics, Indianapolis, Ind.) at 56° C. for 30 min. Specific digoxigenin (DIG)-labeled probes were prepared for each virus according to the manufacturer's protocol (Roche Diagnostics). […]

Data set [5] relates to human foreskin fibroblast cells. The experiment in a line: Neutral red cytotoxicity assay in human foreskin fibroblast cells. The settings on record: read-out: VACV CC50, μm, parallel to VACV assay (second printing of Table 4).

Consider `CC(C)CCCCCCCCCCCCCCOCCCOP(=O)(O)COC(CO)Cn1ccc(=O)[nH]c1=O` (stereo not drawn) [Compound 12], for which the EC50 in data set [1] (read-out: EC50 μM, Virus 4955^R, human foreskin fibroblast cells) is about 0.143 µM; in data set [2], over 4 µM; in data set [3] (Human betaherpesvirus 5, MRC5, HCMV in MRC-5 cells (Table 7), read-out: CMV EC50), 27 nM; in data set [3] (Human betaherpesvirus 5, MRC5, Mean XC50 (Table 9), read-out: HCMV EC50), 17 nM; in data set [3] (Human betaherpesvirus 5, Virus HCMV, cell line MRC5 (Table 8), read-out: EC50), 17 nM; in the data set on HHV-6B, 4700 nM. The EC90 – broadly, the point of the concentration-response curve where the effect stands at 90% – in data set [1] (read-out: EC90 μM) is 0.372 µM. Also, the CC50 – broadly, the concentration that lowers cell viability or growth by half – at 7 days in data set [4] was determined as 50000 nM. For the same compound, the CC50 in data set [5] was over 10000 nM.
